Experimental data reported in PubChem BioAssay AID1632 (University of Pittsburgh Molecular Library Screening Center, 2009).
Records with an inconclusive call do not appear.

Molecular target: hexokinase 1 [Trypanosoma brucei]
Test: TbHK1 enzyme inhibition, concentration series – biochemical, IC50, dose response (AID 1632)
Conditions: recombinant TbHK1 enzyme assay, absorbance read-out; for inhibition: at 100 µM, stronger effect = higher value

Compound | inhibition [%] | IC50 [µM]
O=C(O)CCCCC1CCSS1 (centres undefined) | 96.4 | –
COc1cc(/C=C(\C#N)c2nc3c(s2)CCCC3)ccc1O | 42.4 | –
COC(=O)c1ccccc1NC(=O)CCS(=O)(=O)c1ccc(Br)cc1 | 71.7 | –
C/C(=C/CCC(C)[C@H]1CC[C@@]2(C)C3=C(CC[C@]12C)[C@@]1(C)CCC(=O)C(C)(C)[C@@H]1CC3)C(=O)O (some centres undefined) | 55.3 | –
COc1ccc(C(=O)Nc2cc(Cl)ccc2C(=O)O)cc1 | 75.7 | –
CCCCCCCCCCCNC(=O)c1ccoc1C | 73.4 | –
O=C(Cn1sc2ccccc2c1=O)NC12CC3CC(CC(C3)C1)C2 | 74.6 | –
O=[N+]([O-])c1cc(/C=N\Nc2nccs2)ccc1O | 33.3 | 2.69
CCCCc1ccc(/C=C2/C(=O)ON=C2c2ccccc2)s1 | 32.1 | –
Cc1ccc(CNC(=O)CCS(=O)(=O)c2ccc(Br)cc2)cc1 | 82.3 | –
CCOC(=O)Cc1csc(-n2sc3ccccc3c2=O)n1 | 46.9 | –
Cc1ccccc1-n1sc2cc(F)ccc2c1=O | 87.8 | –
O=c1c2ccccc2sn1-c1ccccc1 | 22.3 | –
